Measured values as given in patent US9918968B2, “Rapamycin analogs targeting proteasome function in the treatment of cancer” (THE BOARD OF REGENTS OF THE UNIVERSITY OF TEXAS SYSTEM, priority 2013, dated 2018).

Tests used:
[1] = biological target: T1, human 20S proteasome, ChT-L peptidase; test: ChT-L peptidase activity of purified human 20S proteasome (Suc-LLVY-MCA); assay type: biochemical; conditions: latent human 20S proteasome
T1 construct: purchased Enzo LifeSciences
Description: Human purified proteasome complexes were purchased from Enzo LifeSciences or Boston Biochemicals (19S complex). BODIPY-casein (Invitrogen/Molecular Probes) was used as a model protein substrate, with increasing fluorescence of BODIPY labeled peptide products of degradation monitored for up to 8 hours at 37° C. The peptidase activity of the enzyme was measured as arbitrary intensity units of the released fluorescent group 7-amino-4-methylcoumarin (AMC) from peptide substrates, as described. […] Proteasome substrates, rapamycin, its derivatives, and competing peptides were stocked in DMSO and diluted 100-fold in the reaction mixtures. The Rpt5 and PA200 C-terminal peptides were synthesized in the Departmental Peptide Synthesis Core using the standard SPPS chemistry. To activate the latent 20S proteasome, 0.005% (final concentration) of sodium dodecyl sulfate (SDS) was used. […] The fluorescence of products was monitored every 2 minutes with a Fluoroskan Ascent plate reader. Reaction rates were calculated from smoothed linear segment of kinetic curves using OriginPro 8.6 (OriginLabs, Northampton, Mass.). For the determination of an inhibition type, at least six distinct substrate concentrations and two inhibitor concentrations were used. The kinetic parameters of inhibition were analyzed in terms of the Michaelis-Menten formalism using the enzyme kinetic module of SigmaPlot v.12 (Systat Software, Inc, San Jose, Calif.) to perform the respective calculations. […]
The in vitro assay for testing the ChT-L peptidase activity of the purified human 20S proteasome was performed as described above.

[2] = tested on: T2, human 20S proteasome, T-L peptidase; test: T-L peptidase activity of purified human 20S proteasome (BocLRR-MCA); assay type: biochemical
T2 construct: purchased Enzo LifeSciences
Description: (§1) Human purified proteasome complexes were purchased from Enzo LifeSciences or Boston Biochemicals (19S complex). BODIPY-casein (Invitrogen/Molecular Probes) was used as a model protein substrate, with increasing fluorescence of BODIPY labeled peptide products of degradation monitored for up to 8 hours at 37° C. The peptidase activity of the enzyme was measured as arbitrary intensity units of the released fluorescent group 7-amino-4-methylcoumarin (AMC) from peptide substrates, as described. The common substrates specific for the three kinds of active sites: succinyl-LeuLeuValTyr-7-amido-4-methylcoumarin (Suc-LLVY-MCA; for the ChT-L activity; Bachem), butoxycarbonyl-LeuArgArg-MCA (BocLRR-MCA; for T-L; Bachem) and carbobenzoxy-LeuLeuGlu-MCA (CbzLLE-MCA; for PGPH; Enzo Life Sciences International, Inc.) were used at 100 μM final concentrations, unless stated otherwise (Gaczynska and Osmulski, 2005). Proteasome substrates, rapamycin, its derivatives, and competing peptides were stocked in DMSO and diluted 100-fold in the reaction mixtures. The Rpt5 and PA200 C-terminal peptides were synthesized in the Departmental Peptide Synthesis Core using the standard SPPS chemistry. To activate the latent 20S proteasome, 0.005% (final concentration) of sodium dodecyl sulfate (SDS) was used. The reactions were carried out in 96 well plates, with 2.3 nM proteasome and other components as indicated dissolved in 50 mM Tris-HCl buffer (pH 8.0) and incubated at 37° C. for up to 1 hour. The fluorescence of products was monitored every 2 minutes with a Fluoroskan Ascent plate reader. Reaction rates were calculated from smoothed linear segment of kinetic curves using OriginPro 8.6 (OriginLabs, Northampton, Mass.). For the determination of an inhibition type, at least six distinct substrate concentrations and two inhibitor concentrations were used. The kinetic parameters of inhibition were analyzed in terms of the Michaelis-Menten formalism using the enzyme kinetic module of SigmaPlot v.12 (Systat Software, Inc, San Jose, Calif.) to perform the respective calculations.
IC50 values (a drug concentration causing 50% inhibition of the indicated enzymatic activity) were calculated for ChT-L and PGPH peptidases. Kd (dissociation constant) and Bmax (maximal activation effect achieved; in % above the control activity) values were calculated for the T-L peptidase. Mean±SD from n=2 or 3 experiments, or data from representative experiments set in duplicates or triplicates, are presented in the table. All three peptidase activities changed by no more than ±20%, without a concentration-dependent trend, upon treatment with up to 10 μM of rapamycin unrelated mTOR inhibitors PI-103 or NVP-BEZ235, in two independent experiments.

[3] = tested on: T3, 20S core with 19S, 11S, tRpt5 or tPA200; test: Activation of 20S core ChT-L activity by α face ligands (19S, 11S, tRpt5, tPA200); assay type: biochemical, human; conditions: 10 μM derivative
T3 construct: purchased Enzo LifeSciences (20S, 11S); Boston Biochemicals (19S complex)
Description: as §1
De novo assembly of 19S from subunits is a complex process assisted by chaperones. In vitro, and likely also in cells, the 26S can also be reconstructed from 20S and the already-assembled 19S particle in the presence of ATP (Smith et al., 2005). Enhancement of the peptidase activities of the core proteasome is an established test for efficiency of the in vitro reconstruction. […] In contrast, a pretreatment of 20S with 5 μM rapamycin before adding ATP and 19S totally abrogated the activation, leaving the proteasome almost 40% inhibited instead (FIG. 6).

[4] = biological target: mTOR (Homo sapiens, UniProt P42345+P62942); conditions: cited from earlier work

CO[C@@H](C[C@@H]1CC[C@@H](C)[C@](O)(C(=O)C(=O)N2CCCC[C@H]2C(=O)[O-])O1)/C(C)=C/C=C/C=C/[C@@H](C)C[C@@H](C)C(=O)[C@H](OC)[C@H](O)/C(C)=C/[C@@H](C)C(=O)/C=C/[C@H](C)C[C@@H]1CC[C@@H](O)[C@H](OC)C1.[Na+] [seco-rapamycin]
IC50 [1]: > 20 µM | activation of post-basic (T-L) cleavages ([2]; 5 μM): ~2 fold | Kd ([2]; activation of T-L peptidase): 5.33 µM | Bmax [%]: T-L ([2]; maximal activation effect, % above the control activity): 77% | lowering of activation by tRpt5 ([3]; 10 μM tRpt5): about 30% | inhibition of proteasome with or without tPA200 ([3]; presence or absence of 10 μM tPA200): about 40% | effect on mTOR function [4]: not to affect the mTOR function
